# Test results reported in patent US20250057808A1, “COMPOSITION COMPRISING BETA LACTAM FOR TREATING ALCOHOL DEPENDENCE AND ALCOHOL ASSOCIATED DISEASES OR CONDITIONS” (Temple University of the Commonwealth System of Higher …, priority 2023, published 2025).
# Entries after “also recorded” stand apart in the source; their conditions may differ.
# Experiments:
# RAGE = test: Western blot RAGE in subregions of mPFC and NAc; format: in vivo, Male P rats
# Method: All P rats were euthanized by CO2 inhalation and decapitated with a guillotine 24 hours after the final i.p. injection was administered on Day 6 of Week 6. Brains were removed and immediately frozen on dry ice and stored at −80° C. The mPFC subregions (infralimbic cortex and prelimbic cortex) and NAc subregions (core and shell) were dissected using a cryostat machine kept at −20° C. Surgical blades were used to dissect all brain regions following visualized landmarks using the stereotaxic coordinates provided by Paxinos and colleague's rat brain stereotactic atlas. All brain regions were stored in −80° C. Western Blot analyses.
# Western blot was performed to determine the expression of BDNF, TNF-α, RAGE, HMGβ-1, and β-tubulin in the subregions of mPFC and NAc as preformed in previous studies.
# Brain samples were lysed with a lysing buffer containing protease inhibitors. The amount of protein in each sample was quantified using a detergent compatible protein assay (Bio-Rad, Hercules, CA, USA). Polyacrylamide gels (10%) were loaded with the lysate mixture, and proteins were separated using gel electrophoresis for 1 hour. Proteins were then transferred from the gels onto Polyvinylidene difluoride (PVDF) membranes (BioRad). After transfer, membranes were incubated for 30 minutes in a mixture of nonfat milk in 1×Tris-buffered saline with Tween-20 (TBST) at room temperature. Membranes were then incubated at 4° C. for 24 hours with primary antibodies: anti-rabbit BDNF (1:1000, Abeam, #ab108319), anti-rabbit TNF-α (1:500, Abeam, #ab9739), anti-rabbit HMGβ-1 (1:500, Abeam, #ab18256), and anti-rabbit RAGE (1:1000, Abeam, #ab37407). Anti-mouse-β-tubulin (1:1000, Cell Signaling Technology, #D71G9) was used as a loading control antibody. After incubating for 24 hours, secondary antibody such as donkey anti-rabbit (1:4000, Invitrogen, #31458) or anti-mouse (1:4000, Cell Signaling, #7076S) was added to the membrane for 1 hour at room temperature. The membranes were then washed with 1×TBST three times for 5 minutes each and then dried. Membranes were then incubated in chemiluminescent reagents (Super Signal West Pico, Pierce Inc.) for 2 minutes. Blot images were developed using ChemiDoc. Imaging System and ImageJ software version 1.53a were used to quantify and analyze the expression of BDNF, TNF-α, RAGE, HMGβ-1, and β-tubulin.
# The data for the water/saline control group were expressed as 100% based on the values corresponding to the ethanol/saline and ethanol/MC-100093 groups for each set of blotting. Thus, the expression of selected proteins for each group (ethanol/saline group or ethanol/MC-100093 group) was calculated relative to the water/saline control group being set to 100%.
# Statistical analyses were performed using GraphPad Prism Version 10. Two-way repeated measures ANOVA followed by Bonferroni post-hoc tests were used to compare water and ethanol intake, and body weight, amongst water group, ethanol/saline group and ethanol/MC-100093 group. A one-way ANOVA test was performed to compare the expression of the studied proteins in selected brain regions in water/saline, ethanol/saline and ethanol/MC-100093 groups. Statistical significance was determined by a p-value of or less than 0.05.
# [1] = Ethanol drinking, further studies with MC-100093 100 mg/kg; format: in vivo, Male P rats
# Method: We used an ethanol drinking paradigm as described previously by Alhaddad, et al. (2014). Briefly, animals started the experimental drinking procedure at age of 90 days. The animals had five weeks of exposure to continuous three-bottle choice drinking, 0%, 15% and 30%, v/v ethanol in water, available concurrently. Daily measurement of ethanol intake was performed (g of ethanol intake/kg of body weight/day). We measured the baseline ethanol drinking by average the intake during the last three weeks. Three groups of P rats (n=8-9/group) exposed to the five weeks ethanol exposure. At week 6, rats in each group received daily intraperitoneal injection of either MC-100093 at dose of 50 mg/kg (Ethanol-MC group), Ceftriaxone at dose of 200 mg/kg (Ethanol-CEF group, which also serves as positive control), or equivolume of saline vehicle (Ethanol group) for five days. This paradigm results in pharmacologically relevant blood alcohol concentration (50-200 mg %). Following the criteria for the development of ethanol dependence, rats whose average ethanol intake <4 g/kg/day were excluded from the study. Beside the ethanol exposed groups, another group of P rats (n=8) exposed to only water and food throughout the exposure procedures (control group).
# Further studies were conducted to investigate the impact of MC-100093 at higher dose (100 mg/kg, i.p.) on ethanol consumption and glutamate transporter 1 (GLT-1) expression in medial prefrontal cortex (mPFC) subregions such as prelimbic mPFC (PL) and infralimbic mPFC (IL). Male P rats (n=16) were divided in three groups: a) Control water group was exposed to water only for 5 weeks and received i.p. saline on Week 6 for 5 days; b) Saline group was exposed to free choice of ethanol (15% and 30% and water) for 5 weeks, and received saline (i.p.) on Week 6 for 5 days; and c) MC-100093 group was exposed to free choice of ethanol for 5 weeks and received MC-100093 (100 mg/kg/day, i.p.) for 5 days on Week 6.
# [2] = 100 mg/kg i.p., compared to ethanol/saline group
smiles,measurement,setting,value
C[C@@H](O)[C@H]1C(=O)N[C@@H]1[C@@H](C)C(=O)N1CCN(C)CC1 [MC-100093],Decrease in RAGE expression in the IL,RAGE; [2],14%
same,Decrease in RAGE expression in the NAc core,RAGE; [2],12%
same,RAGE expression in the NAc shell,RAGE; [2],decreased RAGE expression
same,RAGE expression in the PL,RAGE; [2],decreased RAGE expression
same,RAGE expression in subregions of mPFC and NAc (summary),"RAGE; post-treatment with MC-100093 100 mg/kg i.p., 100 mg/kg",normalized RAGE expression; also recorded: attenuated ethanol-induced increase in receptor for advanced glycation end products (RAGE)
same,Reduction in ethanol consumption as compared to control vehicle group,[1]; MC-100093 100 mg/kg i.p.,about 50%
same,Body weight (grams),[1]; MC-100093 100 mg/kg i.p. 5 days,no significant effects
same,Water intake (mL/day),"[1]; MC-100093 100 mg/kg i.p. 5 days, vs ethanol/saline, 100 mg/kg",significant increase in water intake; also recorded: increase in water consumption was observed on Days 1-5
same,Ethanol consumption (g/kg/24 hr),"[1]; male P rats, MC-100093 100 mg/kg i.p. 5 days on Week 6, vs ethanol/saline, 100 mg/kg","attenuated ethanol intake; also recorded: significantly reduced ethanol consumption on Day 1, 3, 4, and 5; also recorded: reduced ethanol intake on Days 2, 4, 5, 6; also recorded: effect similar to that of ceftriaxone"
same,Ethanol preference,"[1]; male P rats, MC-100093 100 mg/kg/day i.p. 5 days",decreased ethanol preference
